Reference: US20260015358A1, “BICYCLIC DERIVATIVES, COMPOSITIONS AND USES THEREOF” (Danatlas Pharmaceuticals Co., Ltd., priority 2023, published 2026)

How the values were obtained:
[1] = target: T1, WRN [UniPro: Q14191 (WRN_HUMAN), N500-C946] (Homo sapiens (Human), UniProt Q14191); assay: WRN unwinding assay (FORKF DNA, fluorescence); format: biochemical; settings: Table 14
[2] = target: T1, WRN [UniPro: Q14191 (WRN_HUMAN), N500-C946]; assay: WRN ATPase assay (ADP-Glo); format: biochemical; settings: WRN enzymatic activity assay

T1 sequence (Q14191 500-946): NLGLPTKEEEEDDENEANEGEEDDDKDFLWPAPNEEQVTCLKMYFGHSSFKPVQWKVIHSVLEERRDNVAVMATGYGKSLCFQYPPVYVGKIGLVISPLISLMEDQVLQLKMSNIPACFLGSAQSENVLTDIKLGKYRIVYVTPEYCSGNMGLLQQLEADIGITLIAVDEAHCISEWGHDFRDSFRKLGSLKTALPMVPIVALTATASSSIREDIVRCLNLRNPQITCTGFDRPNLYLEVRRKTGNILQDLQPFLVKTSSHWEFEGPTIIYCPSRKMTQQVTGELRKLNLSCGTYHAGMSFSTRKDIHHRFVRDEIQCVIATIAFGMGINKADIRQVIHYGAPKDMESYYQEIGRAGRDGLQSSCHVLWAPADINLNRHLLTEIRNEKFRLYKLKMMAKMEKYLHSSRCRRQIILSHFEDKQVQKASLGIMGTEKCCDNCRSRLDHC

Structure (SMILES)	IC50 [1] [nM]	IC50 [2] [nM]
CCc1c(N2CCN(C(=O)C(=O)Nc3nncs3)CC2)c(=O)n2nc(C3=CCOCC3)nc2n1CC(=O)Nc1ccc(C(F)(F)F)cc1F [Example 342, 2-(4-(2-(3,6-Dihydro-2H-pyran-4-yl)-5-ethyl-4-(2-((2-fluoro-4-(trifluoromethyl)phenyl)amino)-2-oxoethyl)-7-oxo-4,7-dihydro-[1,2,4]triazolo[1,5-a]pyrimidin-6-yl)piperazin-1-yl)-2-oxo-N-(1,3,4-thiadiazol-2-yl)acetamide]	< 100	< 100
CCc1c(N2CCN(C(=O)CNC(=O)c3ccccc3F)CC2)c(=O)n2nc(C3=CCOCC3)cc2n1CC(=O)Nc1ccc(C(F)(F)F)cc1Cl [Example 343, N-(2-(4-(4-(2-((2-Chloro-4-(trifluoromethyl)phenyl)amino)-2-oxoethyl)-2-(3,6-dihydro-2H-pyran-4-yl)-5-ethyl-7-oxo-4,7-dihydropyrazolo[1,5-a]pyrimidin-6-yl)piperazin-1-yl)-2-oxoethyl)-2-fluorobenzamide]	< 100	< 100
CCc1c(N2CCN(C(=O)CNC(=O)c3ccccc3F)CC2)c(=O)n2nc(N3CCOCC3)cc2n1CC(=O)Nc1ccc(C(F)(F)F)cc1Cl [Example 344, N-(2-(4-(4-(2-((2-chloro-4-(trifluoromethyl)phenyl)amino)-2-oxoethyl)-5-ethyl-2-morpholino-7-oxo-4,7-dihydropyrazolo[1,5-a]pyrimidin-6-yl)piperazin-1-yl)-2-oxoethyl)-2-fluorobenzamide]	100 to 1000	100 to 1000
CCc1c(N2CCN(C(=O)C(F)N3C(=O)c4ccccc4C3=O)CC2)c(=O)n2nc(C3=CCOCC3)nc2n1CC(=O)Nc1ccc(C(F)(F)F)cc1Cl (centres unmarked) [Example 345, N-(2-chloro-4-(trifluoromethyl)phenyl)-2-(2-(3,6-dihydro-2H-pyran-4-yl)-6-(4-(2-(1,3-dioxoisoindolin-2-yl)-2-fluoroacetyl)piperazin-1-yl)-5-ethyl-7-oxo-[1,2,4]triazolo[1,5-a]pyrimidin-4(7H)-yl)acetamide]	100 to 1000	100 to 1000
CCc1c(N2CCN(C(=O)CNC(=O)c3nc(C)cs3)CC2)c(=O)n2nc(C3=CCOCC3)nc2n1CC(=O)Nc1ccc(C(F)(F)F)cc1Cl [Example 346, N-(2-(4-(4-(2-((2-Chloro-4-(trifluoromethyl)phenyl)amino)-2-oxoethyl)-2-(3,6-dihydro-2H-pyran-4-yl)-5-ethyl-7-oxo-4,7-dihydro-[1,2,4]triazolo[1,5-a]pyrimidin-6-yl)piperazin-1-yl)-2-oxoethyl)-4-methylthiazole-2-carboxamide]	< 100	< 100
CCc1c(N2CCN(C(=O)C(=O)Nc3nc(C)cs3)CC2)c(=O)n2nc(C3=CCOCC3)nc2n1CC(=O)Nc1ccc(C(F)(F)F)cc1Cl [Example 347, 2-(4-(4-(2-((2-Chloro-4-(trifluoromethyl)phenyl)amino)-2-oxoethyl)-2-(3,6-dihydro-2H-pyran-4-yl)-5-ethyl-7-oxo-4,7-dihydro-[1,2,4]triazolo[1,5-a]pyrimidin-6-yl)piperazin-1-yl)-N-(4-methylthiazol-2-yl)-2-oxoacetamide]	< 100	< 100
CCc1c(N2CCN(C(=O)C(=O)Nc3cc(C)no3)CC2)c(=O)n2nc(C3=CCOCC3)nc2n1CC(=O)Nc1ccc(C(F)(F)F)cc1Cl [Example 348, 2-(4-(4-(2-((2-Chloro-4-(trifluoromethyl)phenyl)amino)-2-oxoethyl)-2-(3,6-dihydro-2H-pyran-4-yl)-5-ethyl-7-oxo-4,7-dihydro-[1,2,4]triazolo[1,5-a]pyrimidin-6-yl)piperazin-1-yl)-N-(3-methylisoxazol-5-yl)-2-oxoacetamide]	< 100	< 100
CCc1c(N2CCN(C(=O)C(=O)Nc3cncs3)CC2)c(=O)n2nc(C3=CCOCC3)nc2n1CC(=O)Nc1ccc(C(F)(F)F)cc1F [Example 349, 2-(4-(2-(3,6-Dihydro-2H-pyran-4-yl)-5-ethyl-4-(2-((2-fluoro-4-(trifluoromethyl)phenyl)amino)-2-oxoethyl)-7-oxo-4,7-dihydro-[1,2,4]triazolo[1,5-a]pyrimidin-6-yl)piperazin-1-yl)-2-oxo-N-(thiazol-5-yl)acetamide]	< 100	< 100
CCc1c(N2CCN(C(=O)C(=O)Nc3nc(C)cs3)CC2)c(=O)n2nc(C3=CCOCC3)nc2n1CC(=O)Nc1ccc(C(F)(F)F)cc1F [Example 350, 2-(4-(2-(3,6-Dihydro-2H-pyran-4-yl)-5-ethyl-4-(2-((2-fluoro-4-(trifluoromethyl)phenyl)amino)-2-oxoethyl)-7-oxo-4,7-dihydro-[1,2,4]triazolo[1,5-a]pyrimidin-6-yl)piperazin-1-yl)-N-(4-methylthiazol-2-yl)-2-oxoacetamide]	< 100	< 100
CCc1c(N2CCN(C(=O)C(=O)Nc3nnc(Cl)s3)CC2)c(=O)n2nc(C3=CCOCC3)nc2n1CC(=O)Nc1ccc(C(F)(F)F)cc1Cl [Example 351, N-(5-Chloro-1,3,4-thiadiazol-2-yl)-2-(4-(4-(2-((2-chloro-4-(trifluoromethyl)phenyl)amino)-2-oxoethyl)-2-(3,6-dihydro-2H-pyran-4-yl)-5-ethyl-7-oxo-4,7-dihydro-[1,2,4]triazolo[1,5-a]pyrimidin-6-yl)piperazin-1-yl)-2-oxoacetamide]	< 100	< 100
CCc1c(N2CCN(C(=O)C(=O)Nc3cc(C)on3)CC2)c(=O)n2nc(N3CCOCC3)nc2n1CC(=O)Nc1ccc(C(F)(F)F)cc1Cl [Example 352, 2-(4-(4-(2-((2-Chloro-4-(trifluoromethyl)phenyl)amino)-2-oxoethyl)-5-ethyl-2-morpholino-7-oxo-4,7-dihydro-[1,2,4]triazolo[1,5-a]pyrimidin-6-yl)piperazin-1-yl)-N-(5-methylisoxazol-3-yl)-2-oxoacetamide]	100 to 1000	100 to 1000
CCc1c(N2CCN(C(=O)C(=O)Nc3nc(C)co3)CC2)c(=O)n2nc(C3=CCOCC3)nc2n1CC(=O)Nc1ccc(C(F)(F)F)cc1Cl [Example 353, 2-(4-(4-(2-((2-Chloro-4-(trifluoromethyl)phenyl)amino)-2-oxoethyl)-2-(3,6-dihydro-2H-pyran-4-yl)-5-ethyl-7-oxo-4,7-dihydro-[1,2,4]triazolo[1,5-a]pyrimidin-6-yl)piperazin-1-yl)-N-(4-methyloxazol-2-yl)-2-oxoacetamide]	< 100	< 100
CCc1c(N2CCN(C(=O)C(=O)Nc3ccno3)CC2)c(=O)n2nc(C3=CCOCC3)nc2n1CC(=O)Nc1ccc(C(F)(F)F)cc1Cl [Example 354, 2-(4-(4-(2-((2-Chloro-4-(trifluoromethyl)phenyl)amino)-2-oxoethyl)-2-(3,6-dihydro-2H-pyran-4-yl)-5-ethyl-7-oxo-4,7-dihydro-[1,2,4]triazolo[1,5-a]pyrimidin-6-yl)piperazin-1-yl)-N-(isoxazol-5-yl)-2-oxoacetamide]	< 100	< 100
CCc1c(N2CCN(C(=O)C(=O)Nc3nc(C)co3)CC2)c(=O)n2nc(C3=CCOCC3)nc2n1CC(=O)Nc1ccc(C(F)(F)F)cc1F [Example 355, 2-(4-(2-(3,6-Dihydro-2H-pyran-4-yl)-5-ethyl-4-(2-((2-fluoro-4-(trifluoromethyl)phenyl)amino)-2-oxoethyl)-7-oxo-4,7-dihydro-[1,2,4]triazolo[1,5-a]pyrimidin-6-yl)piperazin-1-yl)-N-(4-methyloxazol-2-yl)-2-oxoacetamide]	< 100	< 100
CCc1c(N2CCN(C(=O)C(=O)N3CCOCC3)CC2)c(=O)n2nc(C3=CCOCC3)nc2n1CC(=O)Nc1ccc(C(F)(F)F)cc1Cl [Example 356, N-(2-Chloro-4-(trifluoromethyl)phenyl)-2-(2-(3,6-dihydro-2H-pyran-4-yl)-5-ethyl-6-(4-(2-morpholino-2-oxoacetyl)piperazin-1-yl)-7-oxo-[1,2,4]triazolo[1,5-a]pyrimidin-4(7H)-yl)acetamide]	> 1000	> 1000
CCc1c(N2CCN(C(=O)C(=O)NC3CCCC3)CC2)c(=O)n2nc(C3=CCOCC3)nc2n1CC(=O)Nc1ccc(C(F)(F)F)cc1Cl [Example 357, 2-(4-(4-(2-((2-Chloro-4-(trifluoromethyl)phenyl)amino)-2-oxoethyl)-2-(3,6-dihydro-2H-pyran-4-yl)-5-ethyl-7-oxo-4,7-dihydro-[1,2,4]triazolo[1,5-a]pyrimidin-6-yl)piperazin-1-yl)-N-cyclopentyl-2-oxoacetamide]	100 to 1000	100 to 1000
CCc1c(N2CCN(C(=O)C(=O)N3CCCC3)CC2)c(=O)n2nc(C3=CCOCC3)nc2n1CC(=O)Nc1ccc(C(F)(F)F)cc1Cl [Example 358, N-(2-Chloro-4-(trifluoromethyl)phenyl)-2-(2-(3,6-dihydro-2H-pyran-4-yl)-5-ethyl-7-oxo-6-(4-(2-oxo-2-(pyrrolidin-1-yl)acetyl)piperazin-1-yl)-[1,2,4]triazolo[1,5-a]pyrimidin-4(7H)-yl)acetamide]	100 to 1000	100 to 1000
CCc1c(N2CCN(C(=O)C(=O)NC3CC3)CC2)c(=O)n2nc(C3=CCOCC3)nc2n1CC(=O)Nc1ccc(C(F)(F)F)cc1Cl [Example 359, 2-(4-(4-(2-((2-Chloro-4-(trifluoromethyl)phenyl)amino)-2-oxoethyl)-2-(3,6-dihydro-2H-pyran-4-yl)-5-ethyl-7-oxo-4,7-dihydro-[1,2,4]triazolo[1,5-a]pyrimidin-6-yl)piperazin-1-yl)-N-cyclopropyl-2-oxoacetamide]	100 to 1000	100 to 1000
CCc1c(N2CCN(C(=O)C(=O)NCC(F)(F)F)CC2)c(=O)n2nc(C3=CCOCC3)nc2n1CC(=O)Nc1ccc(C(F)(F)F)cc1Cl [Example 360, 2-(4-(4-(2-((2-Chloro-4-(trifluoromethyl)phenyl)amino)-2-oxoethyl)-2-(3,6-dihydro-2H-pyran-4-yl)-5-ethyl-7-oxo-4,7-dihydro-[1,2,4]triazolo[1,5-a]pyrimidin-6-yl)piperazin-1-yl)-2-oxo-N-(2,2,2-trifluoroethyl)acetamide]	> 1000	> 1000
